What was measured:
[1] = system: granulocyte-macrophage (CFU-GM), erythroid (BFU-E) and multipotential (CFU-GEMM) progenitor cells; assay: Progenitor/stem cell mobilization in mice after single subcutaneous injection; assay type: in vivo, C3H/HeJ mice; conditions: Table 8; progenitor cells per mL of blood; 5 mg/kg s.c.; @ - 60″ (1 h)
[2] = system: granulocyte-macrophage (CFU-GM), erythroid (BFU-E) and multipotential (CFU-GEMM) progenitor cells; assay: as above; assay type: in vivo, C3H/HeJ mice; conditions: 5 mg/kg s.c.
Description: All experiments were performed in […] mice. […] The progenitors were stimulated to form colonies in vitro with the combination of 1 U/mL rhu EPO, 50 ng/mL rmu SLF, 5% vol/vol pokeweed mitogen mouse spleen cell conditioned medium (PWMSCM), and 0.1 mM hemin. Plates were scored 7 days after incubation at 37° C., 5% CO2, lowered […] and in a humidified chamber.
In the first experiment (data shown in Table 6), mice received a dose of 5 mg/kg- and the number of progenitors in the circulating blood was measured at various time points (0.25, 0.5, 1, 2, 6 and 24 hours).

wild type CXCR4 = molecular target: T1, wild type CXCR4 (Homo sapiens, UniProt P61073); conditions: wild type CXCR4 in Cf2Th; read-out: EC50 for SDF-1α, calcium flux; cited from earlier work
T1 construct: expressed in transfected cells; host or cells: Cf2Th (canine thymus cell line lacking CXCR4)

E343X CXCR4 variant = molecular target: T2, E343X CXCR4 variant (Homo sapiens, UniProt P61073); conditions: E343X variant in Cf2Th; read-out: EC50 for SDF-1α, calcium flux; cited from earlier work
T2 construct: expressed in transfected cells; host or cells: Cf2Th (canine thymus cell line lacking CXCR4)

R334X CXCR4 variant = molecular target: T3, R334X CXCR4 variant (Homo sapiens, UniProt P61073); conditions: R334X variant in Cf2Th; read-out: EC50 for SDF-1α, calcium flux; cited from earlier work
T3 construct: expressed in transfected cells; host or cells: Cf2Th (canine thymus cell line lacking CXCR4)

[3] = Table 8, @ - 60″ (1 h), vs control
[4] = Table 8, progenitor cells per mL of blood, @ - 60″ (1 h)
[5] = comparison, AMD3100 at 1 hour, X4P-001 peak over 0.25-2 hours

T1 sequence (P61073 whole entry): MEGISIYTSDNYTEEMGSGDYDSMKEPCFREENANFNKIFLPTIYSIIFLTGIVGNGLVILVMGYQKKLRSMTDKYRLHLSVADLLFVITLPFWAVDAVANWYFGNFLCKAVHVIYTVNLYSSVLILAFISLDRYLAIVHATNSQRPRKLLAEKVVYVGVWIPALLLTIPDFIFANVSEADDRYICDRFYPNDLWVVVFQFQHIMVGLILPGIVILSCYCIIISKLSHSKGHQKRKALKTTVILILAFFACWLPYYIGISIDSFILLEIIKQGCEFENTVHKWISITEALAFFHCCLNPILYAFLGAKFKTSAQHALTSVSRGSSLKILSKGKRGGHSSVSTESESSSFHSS

Molecule | BFU (BFU-E), Mean [1] | BFU (BFU-E), Fold Chg [2, 3] [fold] | GEMM (CFU-GEMM), Fold Chg [2, 3] [fold] | GM (CFU-GM), Fold Chg [2, 3] [fold] | Nucleated Cellularity PBL-LD, Fold Chg [2, 3] [fold] | GEMM (CFU-GEMM), Mean [2, 4] | GM (CFU-GM), Mean [2, 4] | Nucleated Cellularity PBL-LD, Mean ([2]; Table 8 comparison, @ - 60″ (1 h)) [mL⁻¹] | Maximum fold-increase in BFU-E [2, 5] [fold] | Maximum fold-increase in CFU-GEMM [2, 5] [fold] | Maximum fold-increase in CFU-GM [2, 5] [fold] | EC50 (wild type CXCR4) [nM] | EC50 (E343X CXCR4 variant) [nM] | EC50 (R334X CXCR4 variant) [nM]
c1cc(CN2CCCNCCNCCCNCC2)ccc1CN1CCCNCCNCCCNCC1 [AMD3100, plerixafor, reference compound] | 207.7 | 3.12 | 4.35 | 9.11 | 1.62 | 138.5 | 1950.3 | 1.008e+07 | 3.12 | 4.35 | 9.11 |  |  | 
SDF-1α |  |  |  |  |  |  |  |  |  |  |  | 13.6 | 15.3 | 11.3

From patent US11219621B2, “Methods for treating immunodeficiency disease” (X4 Pharmaceuticals, Inc., priority 2015, dated 2022)
